Experimental data from ChEMBL document CHEMBL1155668, “A new depsipeptide from the sacoglossan mollusk Elysia ornata and the green alga Bryopsis species” (J Nat Prod, 2000).
The source made the active and inactive calls.

Key:
Format in all cases: functional, cell-based
HT-29 = assay: Growth inhibition of human HT29 cells at 10 ug/mL
P388 = assay: Growth inhibition of mouse P388 cells at 10 ug/mL
A549 = assay: Growth inhibition of human A549 cells at 10 ug/mL
MEL28 = assay: Growth inhibition of human MEL28 cells at 10 ug/mL

Measured: Activity

CC[C@H](C)[C@@H]1NC(=O)[C@H]([C@@H](C)O)NC(=O)[C@@H](Cc2c[nH]c3ccccc23)NC(=O)[C@@H](Cc2ccc(O)cc2)NC(=O)[C@@H](NC(=O)CNC(=O)CCCC(C)C)[C@@H](C)OC(=O)[C@H](C(C)C)NC1=O
inactive: all assays above
